Literature values, collected in US11491120B2, “Pharmacological prophylactics against stress-induced affective disorders in females” (The Trustees of Columbia University in the City of New York, priority 2017, dated 2022).

Details: following ketamine infusion; cited from earlier work

Compound: N[C@@]1(c2ccccc2Cl)CCC[C@@H](O)C1=O [(2R,6R;2S,6S)-HNK, (2R,6R;2S,6S)-hydroxynorketamine]
- Share of the original ketamine dose found as metabolite in the brain: 15%
